Data: patent US20260262643A1, “HERBICIDAL BENZOXAZINES” (FMC CORPORATION, priority 2022, published 2026)
Where two headings read alike, the source gives them in different places.

How the values were obtained:
blackgrass [1] = assay: Test A preemergence; format: in vivo, Alopecurus myosuroides; conditions: Alopecurus myosuroides, pre-emergence, 240 h, read-out: Plant response rating, Blackgrass; for pest or weed control at 125 g/ha: 125 g ai/ha, visual injury after 10 days, 0 to 100 scale, 0 is no effect, 100 is complete control; for pest or weed control at 500 g/ha: 500 g ai/ha, 0 to 100 scale (0 no effect, 100 complete control), 10 days
Method in brief: (§1)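 Weeds and crops in loam–sand blend were sprayed preemergence onto soil or postemergence at 2–10 cm (one- to two-leaf stage). Test chemicals were in a non-phytotoxic solvent with surfactant. After 10 days in the greenhouse, injury was rated visually against untreated controls on a 0 (no effect) to 100 (complete control) scale.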

corn = assay: Test A preemergence; format: in vivo, Zea mays; conditions: Zea mays, pre-emergence, 240 h; for Corn plant response rating (crop injury, 0 = no effect, 100 = complete kill) at 125 g/ha: 125 g ai/ha, visual injury after 10 days, 0 to 100 scale, 0 is no effect, 100 is complete control; for Corn plant response rating (crop injury, 0 = no effect, 100 = complete kill) at 500 g/ha: 500 g ai/ha, 0 to 100 scale (0 no effect, 100 complete control), 10 days
Method in brief: as §1

kochia [2] = assay: Test A preemergence; format: in vivo, Bassia scoparia; conditions: Bassia scoparia, pre-emergence, 240 h, read-out: Plant response rating, Kochia; for pest or weed control at 125 g/ha: 125 g ai/ha, visual injury after 10 days, 0 to 100 scale, 0 is no effect, 100 is complete control; for pest or weed control at 500 g/ha: 500 g ai/ha, 0 to 100 scale (0 no effect, 100 complete control), 10 days
Method in brief: as §1

ragweed [3] = assay: Test A preemergence; format: in vivo, Ambrosia artemisiifolia; conditions: Ambrosia artemisiifolia, pre-emergence, 240 h, read-out: Plant response rating, Ragweed; for pest or weed control at 125 g/ha: 125 g ai/ha, visual injury after 10 days, 0 to 100 scale, 0 is no effect, 100 is complete control; for pest or weed control at 500 g/ha: 500 g ai/ha, 0 to 100 scale (0 no effect, 100 complete control), 10 days
Method in brief: as §1

soybean = assay: Test A preemergence; format: in vivo, Glycine max; conditions: Glycine max, pre-emergence, 240 h, read-out: Plant response rating, Soybean; for plant injury at 125 g/ha: 125 g ai/ha, visual injury after 10 days, 0 to 100 scale, 0 is no effect, 100 is complete control; for plant injury at 500 g/ha: 500 g ai/ha, 0 to 100 scale (0 no effect, 100 complete control), 10 days
Method in brief: as §1

wheat [4] = assay: Test A preemergence; format: in vivo, Triticum aestivum; conditions: Triticum aestivum, pre-emergence, 240 h, read-out: Plant response rating, Wheat; for plant injury at 125 g/ha: 125 g ai/ha, visual injury after 10 days, 0 to 100 scale, 0 is no effect, 100 is complete control; for plant injury at 500 g/ha: 500 g ai/ha, 0 to 100 scale (0 no effect, 100 complete control), 10 days
Method in brief: as §1

blackgrass [5] = assay: Test A postemergence; format: in vivo, Alopecurus myosuroides; conditions: Alopecurus myosuroides, post-emergence, 240 h; for pest or weed control at 125 g/ha: 125 g ai/ha; for pest or weed control at 500 g/ha: 500 g ai/ha
Method in brief: as §1

foxtail, giant = assay: Test A postemergence; format: in vivo, Setaria faberi; conditions: Setaria faberi, post-emergence, 240 h; for pest or weed control at 125 g/ha: 125 g ai/ha; for pest or weed control at 500 g/ha: 500 g ai/ha
Method in brief: as §1

goosegrass = assay: Test A postemergence; format: in vivo, Eleusine indica; conditions: Eleusine indica, post-emergence, 240 h; for pest or weed control at 125 g/ha: 125 g ai/ha; for pest or weed control at 500 g/ha: 500 g ai/ha
Method in brief: as §1

kochia [6] = assay: Test A postemergence; format: in vivo, Bassia scoparia; conditions: Bassia scoparia, post-emergence, 240 h; for pest or weed control at 125 g/ha: 125 g ai/ha; for pest or weed control at 500 g/ha: 500 g ai/ha
Method in brief: as §1

ragweed [7] = assay: Test A postemergence; format: in vivo, Ambrosia artemisiifolia; conditions: Ambrosia artemisiifolia, post-emergence, 240 h; for pest or weed control at 125 g/ha: 125 g ai/ha; for pest or weed control at 500 g/ha: 500 g ai/ha
Method in brief: as §1

wheat [8] = assay: Test A postemergence; format: in vivo, Triticum aestivum; conditions: Triticum aestivum, post-emergence, 240 h; for plant injury at 125 g/ha: 125 g ai/ha; for plant injury at 500 g/ha: 500 g ai/ha
Method in brief: as §1

ducksalad = assay: Test B flooded paddy test; format: in vivo, Heteranthera limosa; conditions: Heteranthera limosa, 312 h, 250 g ai/ha, Flood, 13 days, 0 to 100 scale (0 no effect, 100 complete control); read-out: Plant response rating, Ducksalad
Method in brief: (§2)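 2-leaf stage; pots flooded 3 cm over soil; compound dosed into paddy water; depth kept constant. Greenhouse, 13 d. Visual rating vs controls, 0 (no effect)–100 (complete control). Dash = no result.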

rice = assay: Test B flooded paddy test; format: in vivo, Oryza sativa; conditions: Oryza sativa, 312 h; 250 g ai/ha, Flood, 13 days, 0 to 100 scale (0 no effect, 100 complete control); read-out: Plant response rating, Rice
Method in brief: as §2

[9] = postemergence, 10 days, visual injury, 0 to 100 scale (0 no effect, 100 complete control), read-out: Plant response rating, Blackgrass
[10] = postemergence, 10 days, visual injury, 0 to 100 scale (0 no effect, 100 complete control), read-out: Plant response rating, Foxtail, Giant
[11] = postemergence, 10 days, visual injury, 0 to 100 scale (0 no effect, 100 complete control), read-out: Plant response rating, Goosegrass
[12] = postemergence, 10 days, visual injury, 0 to 100 scale (0 no effect, 100 complete control), read-out: Plant response rating, Kochia
[13] = postemergence, 10 days, visual injury, 0 to 100 scale (0 no effect, 100 complete control), read-out: Plant response rating, Ragweed
[14] = postemergence, 10 days, visual injury, 0 to 100 scale (0 no effect, 100 complete control), read-out: Plant response rating, Wheat

In the case of `COc1ccc(-n2cncn2)cc1C(=O)N1C[C@H](C)Oc2c(C)cccc21` [Compound 63, [(2S)-2,3-Dihydro-2,8-dimethyl-4H-1,4-benzoxazin-4-yl][2-methoxy-5-(1H-1,2,4-triazol-1-yl)phenyl]methanone], the pest or weed control at 125 g/ha (blackgrass [1]) is reported as 80%, the pest or weed control at 500 g/ha (blackgrass [1]) is reported as 90% and the Corn plant response rating (crop injury, 0 = no effect, 100 = complete kill) at 125 g/ha (corn) is reported as 60%. The Corn plant response rating (crop injury, 0 = no effect, 100 = complete kill) at 500 g/ha (corn) was 80%, the pest or weed control at 125 g/ha (kochia [2]) was 30% and the pest or weed control at 500 g/ha (kochia [2]) was 40%. The pest or weed control at 125 g/ha (ragweed [3]) was 0%, the pest or weed control at 500 g/ha (ragweed [3]) was 40% and the plant injury at 125 g/ha (soybean) was 100%. For the same compound, the plant injury at 500 g/ha (soybean) was 100%, the plant injury at 125 g/ha (wheat [4]) was 40% and the plant injury at 500 g/ha (wheat [4]) was 90%. The pest or weed control at 125 g/ha (blackgrass [5]; [9]) was 70%, the pest or weed control at 500 g/ha (blackgrass [5]; Postemergence, 0 to 100 scale, read-out: Plant response rating, Blackgrass) was 90% and the pest or weed control at 125 g/ha (foxtail, giant; [10]) was 90%. The pest or weed control at 500 g/ha (foxtail, giant; Postemergence, 0 to 100 scale, read-out: Plant response rating, Foxtail, Giant) was 90%, the pest or weed control at 125 g/ha (goosegrass; [11]) was 70% and the pest or weed control at 500 g/ha (goosegrass; Postemergence, 0 to 100 scale, read-out: Plant response rating, Goosegrass) was 80%. The pest or weed control at 125 g/ha (kochia [6]; [12]) was 10%, the pest or weed control at 500 g/ha (kochia [6]; Postemergence, 0 to 100 scale, read-out: Plant response rating, Kochia) was 20% and the pest or weed control at 125 g/ha (ragweed [7]; [13]) was 40%. The pest or weed control at 500 g/ha (ragweed [7]; Postemergence, 0 to 100 scale, read-out: Plant response rating, Ragweed) was 40%, the plant injury at 125 g/ha (wheat [8]; [14]) was 70% and the plant injury at 500 g/ha (wheat [8]; Postemergence, 0 to 100 scale, read-out: Plant response rating, Wheat) was 90%. For the same compound, the pest or weed control at 250 g/ha (ducksalad) was 90% and the plant injury at 250 g/ha (rice) was 0%.
Compound `CCc1ccc(-n2cnc(C(C)C)n2)cc1C(=O)N1C[C@H](C)Oc2c(Cl)cccc21` [Compound 94, [(2S)-8-Chloro-2,3-dihydro-2-methyl-4H-1,4-benzoxazin-4-yl][2-ethyl-5-[3-(1-methylethyl)-1H-1,2,4-triazol-1-yl]phenyl]methanone] has a pest or weed control at 125 g/ha (blackgrass [1]) of 90%, a pest or weed control at 500 g/ha (blackgrass [1]) of 90% and a Corn plant response rating (crop injury, 0 = no effect, 100 = complete kill) at 125 g/ha (corn) of 60%. For the same compound, the Corn plant response rating (crop injury, 0 = no effect, 100 = complete kill) at 500 g/ha (corn) was 90%, the pest or weed control at 125 g/ha (kochia [2]) was 90% and the pest or weed control at 500 g/ha (kochia [2]) was 100%. For the same compound, the pest or weed control at 125 g/ha (ragweed [3]) was 0%, the pest or weed control at 500 g/ha (ragweed [3]) was 0% and the plant injury at 125 g/ha (soybean) was 50%. For the same compound, the plant injury at 500 g/ha (soybean) was 100%, the plant injury at 125 g/ha (wheat [4]) was 50% and the plant injury at 500 g/ha (wheat [4]) was 90%. For the same compound, the pest or weed control at 125 g/ha (blackgrass [5]; postemergence, 10 days, 0 to 100 scale (0 no effect, 100 complete control), read-out: Blackgrass plant response rating) was 60%, the pest or weed control at 500 g/ha (blackgrass [5]; [9]) was 90% and the pest or weed control at 125 g/ha (foxtail, giant; postemergence, 10 days, 0 to 100 scale (0 no effect, 100 complete control), read-out: Foxtail, Giant plant response rating) was 90%. It also gave a pest or weed control at 500 g/ha (foxtail, giant; [10]) of 90%, a pest or weed control at 125 g/ha (goosegrass; postemergence, 10 days, 0 to 100 scale (0 no effect, 100 complete control), read-out: Goosegrass plant response rating) of 60% and a pest or weed control at 500 g/ha (goosegrass; [11]) of 90%. For the same compound, the pest or weed control at 125 g/ha (kochia [6]; postemergence, 10 days, 0 to 100 scale (0 no effect, 100 complete control), read-out: Kochia plant response rating) was 100%, the pest or weed control at 500 g/ha (kochia [6]; [12]) was 100% and the pest or weed control at 125 g/ha (ragweed [7]; postemergence, 10 days, 0 to 100 scale (0 no effect, 100 complete control), read-out: Ragweed plant response rating) was 50%. For the same compound, the pest or weed control at 500 g/ha (ragweed [7]; [13]) was 50%, the plant injury at 125 g/ha (wheat [8]; postemergence, 10 days, 0 to 100 scale (0 no effect, 100 complete control), read-out: Wheat plant response rating) was 30% and the plant injury at 500 g/ha (wheat [8]; [14]) was 70%. It also gave a pest or weed control at 250 g/ha (ducksalad) of 70% and a plant injury at 250 g/ha (rice) of 0%.
